Experimental data as given in PMC9005681, “Use of AD Informer Set compounds to explore validity of novel targets in Alzheimer's disease pathology” (Alzheimer's & Dementia : Translational Research & Clinical …, 2022).
Several values for one entry are separate records, joined by “and”; a condition that tells them apart may be missing. Identical values can stand only once.

Assays:
Experiment in all cases: PDSP GPCR panel primary binding assays at 10 μM
[1] = target: T1, cloned human or rodent CNS receptors, channels, and transporters (PDSP panel) (Homo sapiens, UniProt P08908); conditions: 5-HT1A, primary assay
T1 construct: expressed in transfected cells
T1 sequence (P08908 1-422): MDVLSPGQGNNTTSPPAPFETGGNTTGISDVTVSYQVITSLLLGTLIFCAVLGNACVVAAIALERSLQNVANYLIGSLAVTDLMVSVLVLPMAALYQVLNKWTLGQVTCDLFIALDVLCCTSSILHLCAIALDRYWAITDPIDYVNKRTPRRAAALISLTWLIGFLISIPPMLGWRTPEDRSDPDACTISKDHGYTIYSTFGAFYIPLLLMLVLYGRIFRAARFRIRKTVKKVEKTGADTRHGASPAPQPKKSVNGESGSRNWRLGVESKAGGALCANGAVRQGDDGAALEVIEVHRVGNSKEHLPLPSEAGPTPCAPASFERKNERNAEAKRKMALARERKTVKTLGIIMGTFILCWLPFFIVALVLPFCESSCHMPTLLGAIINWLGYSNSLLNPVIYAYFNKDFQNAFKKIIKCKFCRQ
In short: (§1)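 Competition binding with radiolabeled standard ligands, single 10 μM concentration, four replicates. Targets showing over 50% displacement were followed up with 11-point titrations in triplicate.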

[2] = target: T2, cloned human or rodent CNS receptors, channels, and transporters (PDSP panel) (Homo sapiens, UniProt P21728); conditions: D1, primary assay
T2 construct: expressed in transfected cells
In short: as §1

[3] = target: T3, cloned human or rodent CNS receptors, channels, and transporters (PDSP panel) (Homo sapiens, UniProt P21918); conditions: D5, primary assay
T3 construct: expressed in transfected cells
In short: as §1

[4] = target: T4, cloned human or rodent CNS receptors, channels, and transporters (PDSP panel) (Homo sapiens, UniProt P23975); conditions: NET, primary assay
T4 construct: expressed in transfected cells
In short: as §1

[5] = target: T5, cloned human or rodent CNS receptors, channels, and transporters (PDSP panel) (Homo sapiens, UniProt P25100); conditions: Alpha1D, primary assay
T5 construct: expressed in transfected cells
T5 sequence (P25100 1-572): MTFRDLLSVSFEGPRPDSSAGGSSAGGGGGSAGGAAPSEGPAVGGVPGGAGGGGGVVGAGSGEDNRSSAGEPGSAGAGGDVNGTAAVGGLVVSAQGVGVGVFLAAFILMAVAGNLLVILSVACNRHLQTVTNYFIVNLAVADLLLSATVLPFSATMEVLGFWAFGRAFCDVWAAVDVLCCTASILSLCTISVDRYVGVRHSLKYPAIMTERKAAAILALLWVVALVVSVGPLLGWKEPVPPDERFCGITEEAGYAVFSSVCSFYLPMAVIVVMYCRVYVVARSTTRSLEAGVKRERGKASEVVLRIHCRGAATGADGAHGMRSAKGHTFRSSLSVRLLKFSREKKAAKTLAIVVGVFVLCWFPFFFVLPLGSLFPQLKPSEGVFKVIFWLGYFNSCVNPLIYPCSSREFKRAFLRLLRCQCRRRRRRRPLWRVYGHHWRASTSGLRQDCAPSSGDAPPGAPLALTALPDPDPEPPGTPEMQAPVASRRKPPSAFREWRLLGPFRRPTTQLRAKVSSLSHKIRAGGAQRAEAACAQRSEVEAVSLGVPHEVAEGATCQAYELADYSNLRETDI
In short: as §1

[6] = target: T6, cloned human or rodent CNS receptors, channels, and transporters (PDSP panel) (Homo sapiens, UniProt P28222); conditions: 5-HT1B, primary assay
T6 construct: expressed in transfected cells
In short: as §1

[7] = target: T7, cloned human or rodent CNS receptors, channels, and transporters (PDSP panel) (Homo sapiens, UniProt P28335); conditions: 5-HT2C, primary assay
T7 construct: expressed in transfected cells
T7 sequence (P28335 33-458): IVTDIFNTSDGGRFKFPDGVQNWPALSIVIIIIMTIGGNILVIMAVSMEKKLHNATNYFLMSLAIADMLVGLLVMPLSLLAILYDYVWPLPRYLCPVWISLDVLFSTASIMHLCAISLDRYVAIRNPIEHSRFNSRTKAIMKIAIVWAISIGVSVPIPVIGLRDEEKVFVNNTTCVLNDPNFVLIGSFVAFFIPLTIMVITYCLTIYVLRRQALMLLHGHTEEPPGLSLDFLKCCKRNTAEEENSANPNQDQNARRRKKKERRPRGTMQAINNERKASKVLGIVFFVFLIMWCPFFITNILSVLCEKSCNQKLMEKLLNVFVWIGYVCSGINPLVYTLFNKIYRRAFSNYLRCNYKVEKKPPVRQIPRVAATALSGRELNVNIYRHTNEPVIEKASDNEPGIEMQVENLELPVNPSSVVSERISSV
In short: as §1

[8] = target: T8, cloned human or rodent CNS receptors, channels, and transporters (PDSP panel) (Homo sapiens, UniProt P31645); conditions: SERT, primary assay
T8 construct: expressed in transfected cells
In short: as §1

[9] = target: T9, cloned human or rodent CNS receptors, channels, and transporters (PDSP panel) (Homo sapiens, UniProt P41595); conditions: 5-HT2B, primary assay
T9 construct: expressed in transfected cells
In short: as §1

T3 sequence (P21918 whole entry): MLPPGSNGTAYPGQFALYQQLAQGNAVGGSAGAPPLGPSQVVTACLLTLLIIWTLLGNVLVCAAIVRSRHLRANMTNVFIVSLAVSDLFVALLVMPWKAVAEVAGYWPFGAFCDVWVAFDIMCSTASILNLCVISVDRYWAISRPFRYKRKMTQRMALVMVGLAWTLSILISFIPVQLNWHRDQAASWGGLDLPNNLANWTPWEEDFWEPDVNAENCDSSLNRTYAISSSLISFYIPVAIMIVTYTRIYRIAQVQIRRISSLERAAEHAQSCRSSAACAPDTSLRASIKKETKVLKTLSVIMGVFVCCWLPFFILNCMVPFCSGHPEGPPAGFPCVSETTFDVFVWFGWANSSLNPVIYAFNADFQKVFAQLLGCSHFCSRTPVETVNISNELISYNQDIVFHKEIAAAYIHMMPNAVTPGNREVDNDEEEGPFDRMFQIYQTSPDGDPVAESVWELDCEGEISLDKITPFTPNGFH
T8 sequence (P31645 whole entry): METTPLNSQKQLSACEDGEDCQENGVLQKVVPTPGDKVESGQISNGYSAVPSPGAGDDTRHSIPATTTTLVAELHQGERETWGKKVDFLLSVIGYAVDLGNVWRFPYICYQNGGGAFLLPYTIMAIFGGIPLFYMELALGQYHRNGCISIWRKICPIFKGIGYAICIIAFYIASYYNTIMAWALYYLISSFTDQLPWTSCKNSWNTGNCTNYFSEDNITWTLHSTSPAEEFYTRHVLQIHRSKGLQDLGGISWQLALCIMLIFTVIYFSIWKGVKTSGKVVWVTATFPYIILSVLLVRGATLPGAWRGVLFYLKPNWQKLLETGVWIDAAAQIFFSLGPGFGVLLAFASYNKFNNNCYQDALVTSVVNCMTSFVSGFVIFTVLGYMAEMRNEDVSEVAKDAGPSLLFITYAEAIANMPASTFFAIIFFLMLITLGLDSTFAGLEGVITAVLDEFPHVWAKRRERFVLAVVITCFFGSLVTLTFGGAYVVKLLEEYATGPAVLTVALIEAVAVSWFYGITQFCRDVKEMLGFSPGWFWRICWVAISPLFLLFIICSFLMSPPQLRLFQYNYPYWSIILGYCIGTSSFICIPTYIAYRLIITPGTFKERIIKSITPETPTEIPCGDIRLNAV
T9 sequence (P41595 whole entry): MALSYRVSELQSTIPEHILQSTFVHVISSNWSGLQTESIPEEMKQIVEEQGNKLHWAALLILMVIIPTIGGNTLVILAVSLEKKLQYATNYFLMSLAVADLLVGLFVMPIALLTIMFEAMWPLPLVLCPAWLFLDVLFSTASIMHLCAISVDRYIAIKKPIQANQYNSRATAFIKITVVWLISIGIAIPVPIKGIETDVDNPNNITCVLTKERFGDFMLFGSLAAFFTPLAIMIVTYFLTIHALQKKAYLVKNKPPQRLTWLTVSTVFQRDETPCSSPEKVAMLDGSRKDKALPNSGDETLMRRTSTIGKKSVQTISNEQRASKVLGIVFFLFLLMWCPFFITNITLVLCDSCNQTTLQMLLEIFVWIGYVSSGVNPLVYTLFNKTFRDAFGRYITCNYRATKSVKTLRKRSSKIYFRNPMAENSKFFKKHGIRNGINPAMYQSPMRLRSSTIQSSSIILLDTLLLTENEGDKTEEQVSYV
T4 sequence (P23975 whole entry): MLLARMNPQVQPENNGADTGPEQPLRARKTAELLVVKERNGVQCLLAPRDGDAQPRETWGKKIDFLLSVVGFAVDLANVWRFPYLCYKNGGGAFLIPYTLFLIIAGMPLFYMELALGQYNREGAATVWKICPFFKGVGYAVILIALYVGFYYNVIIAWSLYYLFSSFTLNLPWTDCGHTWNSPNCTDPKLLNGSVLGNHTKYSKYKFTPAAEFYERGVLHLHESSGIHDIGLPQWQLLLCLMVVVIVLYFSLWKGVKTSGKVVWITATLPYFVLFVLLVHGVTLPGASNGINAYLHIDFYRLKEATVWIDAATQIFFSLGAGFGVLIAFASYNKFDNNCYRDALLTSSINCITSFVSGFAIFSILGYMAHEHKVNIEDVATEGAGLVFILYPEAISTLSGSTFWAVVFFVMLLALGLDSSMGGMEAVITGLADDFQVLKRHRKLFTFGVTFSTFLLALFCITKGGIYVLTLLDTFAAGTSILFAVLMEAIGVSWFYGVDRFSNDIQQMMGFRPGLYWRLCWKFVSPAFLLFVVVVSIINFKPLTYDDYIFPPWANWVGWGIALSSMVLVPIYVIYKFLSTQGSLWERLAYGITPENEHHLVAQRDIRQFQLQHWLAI
T2 sequence (P21728 whole entry): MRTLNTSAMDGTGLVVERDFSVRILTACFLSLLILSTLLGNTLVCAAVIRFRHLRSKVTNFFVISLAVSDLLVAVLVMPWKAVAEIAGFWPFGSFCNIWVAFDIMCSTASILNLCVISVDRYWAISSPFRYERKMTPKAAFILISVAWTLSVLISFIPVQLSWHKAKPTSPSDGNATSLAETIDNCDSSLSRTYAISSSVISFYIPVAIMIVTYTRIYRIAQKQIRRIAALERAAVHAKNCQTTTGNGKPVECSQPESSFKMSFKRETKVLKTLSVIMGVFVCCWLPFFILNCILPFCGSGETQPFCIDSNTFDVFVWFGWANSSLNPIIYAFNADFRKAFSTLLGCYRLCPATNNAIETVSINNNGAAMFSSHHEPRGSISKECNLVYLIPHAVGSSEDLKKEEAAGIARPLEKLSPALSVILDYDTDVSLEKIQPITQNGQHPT
T6 sequence (P28222 whole entry): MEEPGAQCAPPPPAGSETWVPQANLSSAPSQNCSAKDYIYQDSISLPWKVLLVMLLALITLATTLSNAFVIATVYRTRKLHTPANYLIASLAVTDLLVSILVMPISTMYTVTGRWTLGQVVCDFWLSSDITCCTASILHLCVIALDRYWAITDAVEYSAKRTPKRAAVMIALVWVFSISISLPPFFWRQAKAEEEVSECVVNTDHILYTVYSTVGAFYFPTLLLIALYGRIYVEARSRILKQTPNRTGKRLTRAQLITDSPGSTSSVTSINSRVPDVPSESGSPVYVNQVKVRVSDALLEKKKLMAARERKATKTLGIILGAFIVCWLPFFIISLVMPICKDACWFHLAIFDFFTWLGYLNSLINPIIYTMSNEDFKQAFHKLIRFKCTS

`O=C(NC1CC1)C(=O)C(Cc1ccccc1)NC(=O)[C@H]1CCC(=O)N1Cc1ccccc1` (some centres unmarked) [UNC10302676A, ABT-957 (Alicapistat)] was tested. Which Mean % ([1]; mean inhibition) did it give?
Its Mean % is 3.84%.

And the “Inhibition 1” value ([1]; replicate 1)?
The value was 12.84%.

And the “Inhibition 2” value ([1]; replicate 2)?
The value was 2.5%.

And the “Inhibition 3” value ([1]; replicate 3)?
The value was 6.64%.

What about the “Inhibition 4” value ([1]; replicate 4) of the same compound?
Its value is -6.64%.

What about the Mean % ([2]; mean inhibition) of the same compound?
Its Mean % is 0%.

What about the “Inhibition 1” value ([2]; replicate 1) of the same compound?
Its value is 13.52%.

What about the “Inhibition 2” value ([2]; replicate 2) of the same compound?
The value was -11.9%.

What about the “Inhibition 3” value ([2]; replicate 3) of the same compound?
The value was -21.45%.

What about the “Inhibition 4” value ([2]; replicate 4) of the same compound?
The value was 19.83%.

And the Mean % ([3]; mean inhibition)?
The Mean % was -6.38%.

And the “Inhibition 1” value ([3]; replicate 1)?
The value was 0%.

What about the “Inhibition 2” value ([3]; replicate 2) of the same compound?
The value was 3.82%.

What about the “Inhibition 3” value ([3]; replicate 3) of the same compound?
The value was -18.95%.

What about the “Inhibition 4” value ([3]; replicate 4) of the same compound?
Its value is -10.39%.

What about the “Inhibition 1” value ([4]; replicate 1) of the same compound?
The value was 22.45% and -0.84%.

What about the “Inhibition 2” value ([4]; replicate 2) of the same compound?
The value was -3.8% and -22.08%.

What about the “Inhibition 3” value ([4]; replicate 3) of the same compound?
Its value is -17.85% and -14.66%.

What about the “Inhibition 4” value ([4]; replicate 4) of the same compound?
The value was -11.29% and -22.96%.

And the Mean % ([5]; mean inhibition)?
Its Mean % is -2.1%.

What about the “Inhibition 1” value ([5]; replicate 1) of the same compound?
The value was 4.8%.

What about the “Inhibition 2” value ([5]; replicate 2) of the same compound?
The value was -9.7%.

And the “Inhibition 3” value ([5]; replicate 3)?
The value was -4.72%.

What about the “Inhibition 4” value ([5]; replicate 4) of the same compound?
Its value is 1.24%.

And the Mean % ([6]; mean inhibition)?
The Mean % was 8.92%.

What about the “Inhibition 1” value ([6]; replicate 1) of the same compound?
Its value is 9.16%.

And the “Inhibition 2” value ([6]; replicate 2)?
The value was 10.49%.

What about the “Inhibition 3” value ([6]; replicate 3) of the same compound?
Its value is 8.83%.

What about the “Inhibition 4” value ([6]; replicate 4) of the same compound?
The value was 7.18%.

What about the Mean % ([7]; mean inhibition) of the same compound?
The Mean % was -3.07%.

What about the “Inhibition 1” value ([7]; replicate 1) of the same compound?
Its value is 14.23%.

What about the “Inhibition 2” value ([7]; replicate 2) of the same compound?
Its value is -14.23%.

What about the “Inhibition 3” value ([7]; replicate 3) of the same compound?
The value was -2.94%.

What about the “Inhibition 4” value ([7]; replicate 4) of the same compound?
The value was -9.33%.

And the Mean % ([8]; mean inhibition)?
The Mean % was -3.96% and -1.74%.

What about the “Inhibition 1” value ([8]; replicate 1) of the same compound?
The value was 1.77% and -7.1%.

What about the “Inhibition 2” value ([8]; replicate 2) of the same compound?
The value was -9.07% and 1.55%.

What about the “Inhibition 3” value ([8]; replicate 3) of the same compound?
The value was -5.87% and 7.1%.

And the “Inhibition 4” value ([8]; replicate 4)?
Its value is -2.67% and -8.51%.

What about the Mean % ([9]; mean inhibition) of the same compound?
Its Mean % is -32.15%.

What about the “Inhibition 1” value ([9]; replicate 1) of the same compound?
The value was -14.32%.

And the “Inhibition 2” value ([9]; replicate 2)?
The value was -33.19%.

And the “Inhibition 3” value ([9]; replicate 3)?
Its value is -45.78%.

And the “Inhibition 4” value ([9]; replicate 4)?
The value was -35.29%.
